According to paper PMC8892092 (The Journal of Biological Chemistry, 2022):

Tests used:
LuHNL [1] = target: T1, LuHNL (Linum usitatissimum, UniProt P93243, V117T); format: binding; parameters: E. coli SHuffle T7
LuHNL [2] = target: T1, LuHNL
LuHNL [3] = target: LuHNL (Linum usitatissimum, UniProt P93243, V117T/F340A)
LuHNL [4] = target: T1, LuHNL; format: binding; parameters: E. coli SHuffle T7; remark: listed apart in the source
LuHNL [5] = target: T1, LuHNL; format: binding; parameters: E. coli SHuffle T7; remark: listed apart in the source
[6] = target: the molecule itself; test: crystal structure; X-ray crystal structures of N-His-LuHNL (ligand-free with glycerol, soaked with acetone cyanohydrin, soaked with (rac)-2-butanone cyanohydrin); sitting drop, 20 °C, 0.1 M BIS-TRIS pH 6.5, 20% PEG MME 5,000; space group P2_(1), two dimers per asymmetric unit

Q: Which “X-ray crystal structure, 1.48 Å; NAD+ quantitation” value (LuHNL [1]) does the source give for `NC(=O)c1ccc[n+]([C@@H]2O[C@H](COP(=O)(O)OP(=O)(O)OC[C@H]3O[C@@H](n4cnc5c(N)ncnc54)[C@H](O)[C@@H]3O)[C@@H](O)[C@H]2O)c1` [NAD^+] here?
A: electron density of NAD^+ was observed in the crystal without the addition of exogenous NAD^+

Q: For `CC(C)(O)C#N` [CNH, acetone cyanohydrin], which Km (LuHNL [2]) is on record?
A: 2.7 ± 0.3 mM

Q: What about the Km (LuHNL [3]) of the same molecule?
A: 5.4 ± 2.3 mM

Q: And the “X-ray crystal structure, 1.58 Å” value (LuHNL [4])?
A: The structures for acetone cyanohydrin (CNH) complexed LuHNL (LuHNL_CNH)

Q: With `CC[C@@](C)(O)C#N` [(R)-BCN, (R)-2-butanone cyanohydrin] as the molecule, how does the “X-ray crystal structure, 1.72 Å” value (LuHNL [5]) read?
A: (R)-2-butanone cyanohydrin (BCN) complexed LuHNL (LuHNL_BCN) were determined

B1: Hydroxynitrile lyase from Linum usitatissimum (LuHNL), N-terminally His-tagged (enzyme)
chain: MASLPVSFAKPDKNGVITCKAIMLKEAKLPGMSYADTVQIIDIQVDPPQNVELRVKMLCASVCRTDILTIEGFMAPTQFPKINGHEGVGIIESMGPDTKNFKVGDVIVAPTLGECQTCSSCRSGRTNFCQNYGANESALEPDGTSRFSYIDSDGKKKLLYYKLGCSTWTQYMVVDSNYATKLNEIAPELPPPHGSILSCAFATGYGAVWLDAAVQEGDSVAIFGVGSVGISAVIAAKELKAKQIIVVDRNEYKLKMAMELGATHCINSEKLPEGVTPSQAVRKLTPKEVGVDASIESSGYDVFMNEAMKAAIHGKAKTVITGEGIYENDRIFFDFKDFLFGGNVVGNVTGRVRIHSDFPGLLRKAQEPVIRAGMDKILGYDAATMKCKYEVDIREGTPALLKALEEVENVDCVKLVIKLNDY
modifications: S-nitrosylation of Cys265 proposed from the electron density in the crystal (not detected in LuHNL solution)
notes: Hydroxynitrile lyase from Linum usitatissimum, gene of GenBank AF024588.1 (protein AAB81956.1), which has Thr117; Each subunit holds one NAD+, two Zn2+ and one Mg2+; The gene was cloned between NdeI and BamHI of pET-15b; also called N-His-LuHNL; LuHNL-wild; source: SHuffle T7 Express E. coli, pET-15b, purified (Ni Sepharose, Mono Q)
Q: How did the “stoichiometry N” value [6] turn out when B1 was run?
A: 2
